{
  "source": "patent US12433863B2",
  "about": "“Pharmaceutical compositions and uses directed to lysosomal storage disorders” (INTRABIO LIMITED, priority 2016, dated 2025)",
  "origin": "cited, not measured here",
  "key": {"[1]": {"system": "rat model of an acute unilateral labyrinthectomy", "settings": "Gunther et al. 2015; cited from earlier work"}, "[2]": {"system": "glycosphingolipid (GSL) biosynthesis", "settings": "Patterson, 2006; cited from earlier work"}},
  "data": [
    {"smiles": "CC(=O)N[C@@H](CC(C)C)C(=O)O", "note": "[N-acetyl-L-leucine]", "values": [
      {"measurement": "Effect on postural compensation", "setting": "[1]", "value": "significant effect"}
    ]},
    {"smiles": "CCCCN1C[C@H](O)[C@@H](O)[C@H](O)[C@H]1CO", "note": "[miglustat]", "values": [
      {"measurement": "Benefit in clinical trial of substrate reduction therapy", "setting": "[2]", "value": "some benefit"}
    ]}
  ]
}
